Experimental data taken from US20090012056A1, “Quinoline Compounds Capable of Binding the Cb2 and/or the 5-Ht6 Receptor” (GLAXO GROUP LIMITED, priority 2005, published 2009).
Structures can show the parent of a compound that is named as a salt.

What follows are compounds tested against T1, human cannabinoid CB2 receptor (Homo sapiens, UniProt P34972) (assay: Cannabinoid CB2 receptor agonist activity in yeast cells expressing the human CB2 receptor (FDGlu fluorescence)). Details: 24 hours at 30° C., read-out: pEC50 at the CB2 receptor (agonist activity) (converted).
T1 construct: expressed in transfected cells; host or cells: Saccharomyces cerevisiae strain MMY23
T1 sequence (P34972 whole entry): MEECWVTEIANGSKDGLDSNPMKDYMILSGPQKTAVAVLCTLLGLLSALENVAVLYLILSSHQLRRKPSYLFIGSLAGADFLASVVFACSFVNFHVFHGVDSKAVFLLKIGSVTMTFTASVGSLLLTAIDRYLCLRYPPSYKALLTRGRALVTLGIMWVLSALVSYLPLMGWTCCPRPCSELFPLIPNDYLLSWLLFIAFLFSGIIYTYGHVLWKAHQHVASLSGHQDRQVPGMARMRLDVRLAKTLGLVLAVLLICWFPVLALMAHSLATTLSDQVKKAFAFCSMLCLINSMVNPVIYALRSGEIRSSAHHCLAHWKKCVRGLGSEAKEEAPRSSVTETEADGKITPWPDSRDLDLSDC
Format: cell-based
Source text: Yeast (Saccharomyces cerevisiae) cells expressing the human cannabinoid CB2 receptor were generated by integration of an expression cassette into the ura3 chromosomal locus of yeast strain MMY23. This cassette consisted of DNA sequence encoding the human CB2 receptor flanked by the yeast GPD promoter to the 5′ end of CB2 and a yeast transcriptional terminator sequence to the 3′ end of CB2. MMY23 expresses a yeast/mammalian chimeric G-protein alpha subunit in which the C-terminal 5 amino acids of Gpa1 are replaced with the C-terminal 5 amino acids of human Gαi1/23 (as described in Brown et al. (2000), Yeast 16:11-22). Cells were grown at 30° C. in liquid Synthetic Complete (SC) yeast media (Guthrie and Fink (1991), Methods in Enzymology, Vol. 194) lacking uracil, tryptophan, adenine and leucine to late logarithmic phase (approximately 6 OD600/ml).
Agonists were prepared as 10 mM solutions in DMSO. EC50 values (the concentration required to produce 50% maximal response) were estimated using 4 fold dilutions of between 3- and 5-fold (BiomekFX, Beckman) into DMSO. Agonist solutions in DMSO (1% final assay volume) were transferred into black microtitre plates from NUNC Greiner (384-well). Cells were suspended at a density of 0.2 OD600/ml in SC media lacking histidine, uracil, tryptophan, adenine and leucine and supplemented with 10 mM 3-aminotriazole, 0.1M sodium phosphate pH 7.0, and 120 μM fluorescein di-β-D-glucopyranoside (FDGlu). This mixture (50 ul per well) was added to agonist in the assay plates (Multidrop 384, Labsystems). After incubation at 30° C. for 24 hours, fluorescence resulting from degradation of FDGlu to fluorescein due to exoglucanase, an endogenous yeast enzyme produced during agonist-stimulated cell growth, was determined using a fluorescence microtitre plate reader (Tecan Spectrofluor or LJL Analyst excitation wavelength: 485 nm; emission wavelength: 535 nm). Fluorescence was plotted against compound concentration and iteratively curve fitted using a four parameter fit to generate a concentration effect value.
Efficacy (Emax) was calculated from the equation
Emax=Max[compound X]−Min[compound X]/Max[HU210]−Min[HU210]×100% • where Max[compound X] and Min[compound X] are the fitted maximum and minimum respectively from the concentration effect curve for compound X, and Max[HU210] and Min[HU210] are the fitted maximum and minimum respectively from the concentration effect curve for (6aR,10aR)-3-(1,1′-Dimethylheptyl)-6a,7,10,10a-tetrahydro-1-hydroxy-6,6-dimethyl-6H-dibenzo[b,d]pyran-9-methanol (HU210; available from Tocris). Equieffective molar ratio (EMR) values were calculated from the equation
EMR=EC50[compound X]/EC50[HU210] • Where EC50 [compound X] is the EC50 of compound X and EC50 [HU210] is the EC50 of HU210. • pEC50 is the negative log of the EC50.
For O=S(=O)(c1ccccc1)c1cnc2c(CN3CCCC3)cccc2c1 [Example 1, 3-(Phenylsulfonyl)-8-(1-pyrrolidinylmethyl)quinoline hydrochloride], the EC50 was ≤ 10 µM. In the case of CN1CCN(Cc2cccc3cc(S(=O)(=O)c4ccccc4)cnc23)CC1 [Example 3, 8-[(4-Methyl-1-piperazinyl)methyl]-3-(phenylsulfonyl)quinoline], the EC50 is reported as > 31.6 µM. O=S(=O)(c1ccccc1)c1cnc2c(CN3CCC(F)(F)CC3)cccc2c1 [Example 5, 8-[(4,4-Difluoro-1-piperidinyl)methyl]-3-(phenylsulfonyl)quinoline] was tested, and the EC50 was < 1 µM. CC1CCC(C)N1Cc1cccc2cc(S(=O)(=O)c3ccccc3)cnc12 (stereo not shown) [Example 6, 8-[(2,5-Dimethyl-1-pyrrolidinyl)methyl)-3-(phenylsulfonyl)quinoline] was tested, and the EC50 was ≤ 10 µM. For O=S(=O)(c1ccccc1)c1cnc2c(CN3CCC(F)(F)C3)cccc2c1 [Example 33, 8-[(3,3-Difluoro-1-pyrrolidinyl)methyl]-3-(phenylsulfonyl)quinoline hydrochloride], the EC50 was < 1 µM. With O=S(=O)(c1ccccc1)c1cnc2c(CN3CC(F)(F)C3)cccc2c1 [Example 34, 8-[(3,3-Difluoro-1-azetidinyl)methyl]-3-(phenylsulfonyl)quinoline hydrochloride] the EC50 was < 1 µM. For CC(c1cccc2cc(S(=O)(=O)c3ccccc3)cnc12)N1CC(F)(F)C1 (stereo not shown) [Example 35, 8-[1-(3,3-Difluoro-1-azetidinyl)ethyl]-3-(phenylsulfonyl)quinoline], the EC50 was < 1 µM. With CC(c1cccc2cc(S(=O)(=O)c3ccccc3)cnc12)N1CCC(F)(F)C1 (stereo not shown) [Example 36, 8-[1-(3,3-Difluoro-1-pyrrolidinyl)ethyl]-3-(phenylsulfonyl)quinoline] the EC50 was < 1 µM. In the case of CC(c1cccc2cc(S(=O)(=O)c3ccccc3)cnc12)N1CCCC(F)(F)C1 (stereo not shown) [Example 37, 8-[1-(3,3-Difluoro-1-piperidinyl)ethyl]-3-(phenylsulfonyl)quinoline], the EC50 is reported as < 1 µM. For O=S(=O)(c1ccc(F)cc1)c1cnc2c(CN3CCCC(F)(F)C3)cccc2c1 [Example 38, 8-[(3,3-Difluoro-1-piperidinyl)methyl]-3-[(4-fluorophenyl)sulfonyl]quinoline hydrochloride], the EC50 was < 1 µM. In the case of Cc1ccc(S(=O)(=O)c2cnc3c(CN4CCCC(F)(F)C4)cccc3c2)cc1 [Example 39, 8-[(3,3-Difluoro-1-piperidinyl)methyl]-3-[(4-methylphenyl)sulfonyl]quinoline hydrochloride], the EC50 is reported as < 1 µM. O=S(=O)(c1ccc(Cl)cc1)c1cnc2c(CN3CCCC(F)(F)C3)cccc2c1 [Example 40, 3-[(4-Chlorophenyl)sulfonyl]-8-[(3,3-difluoro-1-piperidinyl)methyl]quinolinehydrochloride] was tested, and the EC50 was < 1 µM. O=S(=O)(c1ccc(Br)cc1)c1cnc2c(CN3CCCC(F)(F)C3)cccc2c1 [Example 41, 3-[(4-Bromophenyl)sulfonyl]-8-[(3,3-difluoro-1-piperidinyl)methyl]quinolinehydrochloride] was tested, and the EC50 was < 1 µM. With COc1ccc(S(=O)(=O)c2cnc3c(CN4CCCC(F)(F)C4)cccc3c2)cc1Cl [Example 42, 3-{[3-Chloro-4-(methyloxy)phenyl]sulfonyl}-8-[(3,3-difluoro-1-piperidinyl)methyl]quinolinehydrochloride] the EC50 was ≤ 10 µM. With COc1ccc(S(=O)(=O)c2cnc3c(CN4CCCC(F)(F)C4)cccc3c2)cc1NC(C)=O [Example 43, N-[5-({8-[(3,3-Difluoro-1-piperidinyl)methyl]-3-quinolinyl}sulfonyl)-2-(methyloxy)phenyl]acetamidehydrochloride] the EC50 was < 1 µM. In the case of COc1ccc(S(=O)(=O)c2cnc3c(CN4CCCC(F)(F)C4)cccc3c2)cc1OC [Example 44, 3-{[3,4-Bis(methyloxy)phenyl]sulfonyl}-8-[(3,3-difluoro-1-piperidinyl)methyl]quinolinehydrochloride], the EC50 is reported as < 1 µM. With Cc1ccc(S(=O)(=O)c2cnc3c(CN4CCCC(F)(F)C4)cccc3c2)cc1Cl [Example 45, 3-[(3-Chloro-4-methylphenyl)sulfonyl]-8-[(3,3-difluoro-1-piperidinyl)methyl]quinolinehydrochloride] the EC50 was < 1 µM. In the case of O=S(=O)(c1ccc2ccccc2c1)c1cnc2c(CN3CCCC(F)(F)C3)cccc2c1 [Example 46, 8-[(3,3-Difluoro-1-piperidinyl)methyl]-3-(2-naphthalenylsulfonyl)quinolinehydrochloride], the EC50 is reported as < 1 µM.

The compounds below were run against T2, human cloned 5-HT6 receptors (Homo sapiens, UniProt P50406) (assay: Cyclase assay (cAMP production in membranes of HeLa 5HT6 cells, antagonism of 5-HT)). Details: cyclase assay with 5-HT at 4xEC50, read-out: fpKi (functional pKi, antagonist potency) (converted).
T2 construct: expressed in transfected cells; host or cells: HeLa cells (membranes)
T2 sequence (P50406 whole entry): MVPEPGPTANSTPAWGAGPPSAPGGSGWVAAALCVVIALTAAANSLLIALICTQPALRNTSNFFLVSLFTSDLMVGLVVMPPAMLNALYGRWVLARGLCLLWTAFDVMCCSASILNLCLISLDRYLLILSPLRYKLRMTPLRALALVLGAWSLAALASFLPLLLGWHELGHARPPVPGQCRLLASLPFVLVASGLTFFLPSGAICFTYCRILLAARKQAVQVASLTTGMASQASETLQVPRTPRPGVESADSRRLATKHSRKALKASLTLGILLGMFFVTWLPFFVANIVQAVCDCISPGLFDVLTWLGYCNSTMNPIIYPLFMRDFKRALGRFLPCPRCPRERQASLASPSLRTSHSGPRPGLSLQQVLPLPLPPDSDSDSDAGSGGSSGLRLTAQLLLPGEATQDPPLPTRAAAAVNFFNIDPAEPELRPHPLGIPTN
Format: biochemical
Protocol: 0.5 μl of test compound in 100% dimethylsulfoxide (DMSO) was added to a white, solid 384 well assay plate (for dose response measurements the top of the concentration range is 7.5 μM final). 10 μl of washed membranes of HeLa 5HT6 cells (for preparation see WO 98/27081) in basic buffer (50 mM HEPES pH 7.4 (KOH), 1 mM MgCl2, 100 mM NaCl, 1 μl/ml 3-isobutyl-1-methylxanthine (IBMX) (Sigma-Aldrich)) was added to all wells followed by 10 μl 2×ATP buffer (100 μl/ml ATP and 1 μl/ml 3-Isobutyl-1-methylxanthine (IBMX) (Sigma-Aldrich)) with 5-HT (at a concentration equivalent to a dose response of 4×EC50). The resultant mixture was then incubated at room temperature for 30-45 minutes to allow cAMP production.
cAMP production was then measured using the DiscoveRx™ HitHunter™ chemiluminescence cAMP assay kit (DiscoveRx Corporation, 42501 Albrae Street, Fremont, Calif. 94538; Product Code: 90-0004L) or any other suitable cAMP measurement assay.
IC50 values were estimated from arbitrary designated unit (ADU) measurements from a Perkin Elmer Viewlux instrument using a four parameter logistic curve fit within EXCEL (Bowen, W. P. and Jerman, J. C. (1995), Nonlinear regression using spreadsheets. Trends in Pharmacol. Sci., 16, 413-417). Functional Ki values were calculated using the method of Cheng, Y. C. and Prussof, W. H. (Biochemical Pharmacol (1973) 22 3099-3108). pIC50 and fpKi are the negative log 10 of the molar IC50 and functional Ki respectively.
O=S(=O)(c1ccccc1)c1cnc2c(CN3CCCC3)cccc2c1 [Example 1, 3-(Phenylsulfonyl)-8-(1-pyrrolidinylmethyl)quinoline hydrochloride] was tested, and the Ki was < 0.1 µM. CN1CCN(Cc2cccc3cc(S(=O)(=O)c4ccccc4)cnc23)CC1 [Example 3, 8-[(4-Methyl-1-piperazinyl)methyl]-3-(phenylsulfonyl)quinoline] was tested, and the Ki was < 0.1 µM. In the case of O=S(=O)(c1ccccc1)c1cnc2c(CN3CCC(F)(F)CC3)cccc2c1 [Example 5, 8-[(4,4-Difluoro-1-piperidinyl)methyl]-3-(phenylsulfonyl)quinoline], the Ki is reported as < 0.1 µM. In the case of CC1CCC(C)N1Cc1cccc2cc(S(=O)(=O)c3ccccc3)cnc12 (stereo not shown) [Example 6, 8-[(2,5-Dimethyl-1-pyrrolidinyl)methyl)-3-(phenylsulfonyl)quinoline], the Ki is reported as < 0.1 µM. For O=S(=O)(c1ccccc1)c1cnc2c(CCN3CCCC3)cccc2c1 [Example 10, 3-(Phenylsulfonyl)-8-[2-(1-pyrrolidinyl)ethylquinoline hydrochloride], the Ki was < 0.1 µM. In the case of O=S(=O)(c1ccccc1)c1cnc2c(CCN3CCCCC3)cccc2c1 [Example 11, 3-(Phenylsulfonyl)-8-[2-(1-piperidiny)ethyl]quinoline hydrochloride], the Ki is reported as < 0.1 µM. In the case of O=S(=O)(c1ccccc1)c1cnc2c(CCCN3CCCC3)cccc2c1 [Example 12, 3-(Phenylsulfonyl)-8-[3-(1-pyrrolidinyl)propyl]quinoline hydrochloride], the Ki is reported as < 0.1 µM. For O=S(=O)(c1ccccc1)c1cnc2c(CCCN3CCCCC3)cccc2c1 [Example 13, 3-(Phenylsulfonyl)-8-[3-(1-piperidinyl)propyl]quinoline], the Ki was < 0.1 µM. In the case of O=S(=O)(c1ccccc1)c1cnc2c(CCCN3CCOCC3)cccc2c1 [Example 14], the Ki is reported as < 0.1 µM. CN(C)CCCc1cccc2cc(S(=O)(=O)c3ccccc3)cnc12 [Example 15, N,N-Dimethyl-3-[3-(phenylsulfonyl)-8-quinolinyl]-1-propanamine] was tested, and the Ki was < 0.1 µM. For CC(c1cccc2cc(S(=O)(=O)c3ccccc3)cnc12)N1CCCC1 (stereo not shown) [Example 16, 3-(Phenylsulfonyl)-8-(1-pyrrolidin-1-ylethyl)quinoline hydrochloride], the Ki was < 0.1 µM. CC(c1cccc2cc(S(=O)(=O)c3ccccc3)cnc12)N1CCCCC1 (stereo not shown) [Example 17, 3-(phenylsulfonyl)-8-(1-piperidin-1-ylethyl)quinoline] was tested, and the Ki was < 0.1 µM. With CC(c1cccc2cc(S(=O)(=O)c3ccccc3)cnc12)N1CCOCC1 (stereo not shown) [Example 18, 8-(1-morpholin-4-ylethyl)-3-(phenylsulfonyl)-quinoline] the Ki was ≤ 1 µM. For CC(c1cccc2cc(S(=O)(=O)c3ccccc3)cnc12)N(C)C (stereo not shown) [Example 19, N,N-dimethyl-1-[3-(phenylsulfonyl)quinolin-8-yl]ethanamine], the Ki was < 0.1 µM. In the case of CCN(C)C(C)c1cccc2cc(S(=O)(=O)c3ccccc3)cnc12 (stereo not shown) [Example 21, N-Ethyl-N-methyl-1-[3-(phenylsulfonyl)quinolin-8-yl]ethanamine hydrochloride], the Ki is reported as < 0.1 µM. For CC(C)(c1cccc2cc(S(=O)(=O)c3ccccc3)cnc12)N1CCCC1 [Example 22, 8-(1-Methyl-1-pyrrolidin-1-ylethyl)-3-(phenylsulfonyl)quinoline hydrochloride], the Ki was ≤ 1 µM.
